From ChEMBL document CHEMBL1862790, “Optimisation of fenarimol series for the treatment of Chagas disease”

Assays:
[1] = test system: Trypanosoma cruzi; assay: microbe, parasite or virus in culture; format: functional, organism-based, Tulahuen LacZ, Clone C4; conditions: Trypanosoma cruzi, Tulahuen LacZ, Clone C4
[2] = DNDI: Cytotoxicity against L-6 rat myoblasts from skeletal muscle cells; conditions: L6 rat skeletal muscle myoblast cells
[3] = test system: Trypanosoma cruzi; assay: microbe, parasite or virus in culture; format: functional, Tulahuen LacZ, Clone C4; conditions: Trypanosoma cruzi, Tulahuen LacZ, Clone C4

Compound	IC50 [1]	IC90 [3]	IC50 ([2]; IC50)	IC50 [2]
O=C(C1CC1)N1CCC(NC(c2ccc(C(F)(F)F)cc2)c2cccnc2)CC1 (stereo not drawn)	150 nM	550 nM	> 100000 nM	
CS(=O)(=O)N1CCC(C(=O)NC(c2ccc(Cl)cc2)c2cccnc2)CC1 (stereo not drawn)	6090 nM	> 10000 nM	> 100000 nM	
O=C(Oc1ccccc1)N1CCC(NC(c2ccc(Cl)cc2)c2cccnc2)CC1 (stereo not drawn)	20 nM	44 nM		60800 nM
O=C(c1ccccc1)N1CCC(NC(c2ccc(C(F)(F)F)cc2)c2cccnc2)CC1 (stereo not drawn)	83 nM	770 nM	72800 nM	
O=C(Nc1ccccc1)N1CCC(NC(c2ccc(C(F)(F)F)cc2)c2cccnc2)CC1 (stereo not drawn)	76 nM	380 nM	64100 nM	
Nc1ncc(C(O)(c2ccc(Cl)cc2)c2cccnc2)cn1 (stereo not drawn)	290 nM	910 nM	> 100000 nM	
CS(=O)(=O)NC1CCN(C(c2ccc(Cl)cc2)c2cccnc2)CC1 (stereo not drawn)	100 nM	640 nM	> 100000 nM	
O=C(NC(c1ccc(Cl)cc1)c1cccnc1)c1ccc(C(F)(F)F)cc1 (stereo not drawn)	250 nM	690 nM	62600 nM	
CS(=O)(=O)N1CCC(NC(c2ccc(C(F)(F)F)cc2)c2cccnc2)CC1 (stereo not drawn)	190 nM	930 nM	> 100000 nM	
O=C(OCc1ccccc1)N1CCN(C(c2ccc(Cl)cc2)c2cncnc2)CC1 (stereo not drawn)	150 nM	300 nM	52100 nM	
O=C(NC1CCCC1)N1CCN(C(c2ccc(Cl)cc2)c2cncnc2)CC1 (stereo not drawn)	230 nM	620 nM	> 100000 nM	
O=C(c1cc(C(O)(c2ccc(Cl)cc2)c2cccnc2)ccc1Cl)N1CCOCC1 (stereo not drawn)	120 nM	470 nM	> 100000 nM	
O=C(NC(c1ccc(Cl)cc1)c1cccnc1)c1ccc(Cl)cc1 (stereo not drawn)	450 nM	900 nM	58000 nM	
CCNC(=O)N1CCN(C(c2cncnc2)c2ccc(Cl)cc2F)CC1 (stereo not drawn)	290 nM	770 nM	> 100000 nM	
NC(=O)c1cccc(C(O)(c2ccc(C(F)(F)F)cc2)c2cccnc2)c1 (stereo not drawn)	70 nM	300 nM	> 100000 nM	
O=C(NC1CC1)c1cccc(C(O)(c2ccc(Cl)cc2)c2cccnc2)c1 (stereo not drawn)	180 nM	330 nM	72300 nM	
O=C(c1ccccc1)N1CCC(NC(c2ccc(Cl)cc2)c2cccnc2)CC1 (stereo not drawn)	84 nM	190 nM	> 100000 nM	
O=C(N1CCCCC1)N1CCN(C(c2ccc(Cl)cc2)c2cncnc2)CC1 (stereo not drawn)	220 nM	610 nM	> 100000 nM	
CCNC(=O)NC1CCN(C(c2ccc(Cl)cc2)c2cccnc2)CC1 (stereo not drawn)	97 nM	300 nM	> 100000 nM	
O=C(NC1CCN(C(c2ccc(Cl)cc2)c2cccnc2)CC1)C1CC1 (stereo not drawn)	78 nM	580 nM	84100 nM	
O=C(C1CC1)N1CCC(NC(c2ccc(Cl)cc2)c2cccnc2)CC1 (stereo not drawn)	180 nM	300 nM	> 100000 nM	
CC(C)Oc1ccc(C(NC(=O)c2ccc(Cl)cc2)c2cccnc2)cc1 (stereo not drawn)	150 nM	330 nM	84900 nM	
CC(C)Oc1ccc(C(O)(c2cccnc2)c2cccc(C(N)=O)c2)cc1F (stereo not drawn)	99 nM	270 nM	> 100000 nM	

Now from value to compound, other results behind:

IC50 [1]	IC90 [3]	Compound	IC50 ([2]; IC50)	IC50 [2]
36 nM	250 nM	CCN(CC)C(=O)N1CCC(NC(c2ccc(C(F)(F)F)cc2)c2cccnc2)CC1 (stereo not drawn)	90800 nM	
32 nM	150 nM	OC(c1ccc(Cl)cc1)(c1cccnc1)c1cnc(OC(CF)CF)nc1 (stereo not drawn)	> 100000 nM	
8.8 nM	65 nM	CC(C)(C)CC(=O)NC1CCN(C(c2ccc(Cl)cc2)c2cccnc2)CC1 (stereo not drawn)	> 100000 nM	
6 nM	30 nM	O=C(Nc1ccc(Cl)cc1)NC1CCN(C(c2ccc(Cl)cc2)c2cccnc2)CC1 (stereo not drawn)	21000 nM	
17 nM	100 nM	O=S1(=O)CCCN1C1CCN(C(c2ccc(Cl)cc2)c2cccnc2)CC1 (stereo not drawn)	> 100000 nM	
30 nM	100 nM	O=C(NC1CCCCC1)N1CCC(NC(c2ccc(Cl)cc2)c2cccnc2)CC1 (stereo not drawn)	> 100000 nM	
24 nM	76 nM	CCOC(=O)N1CCN(C(c2cccnc2)c2ccc(Cl)cc2F)CC1 (stereo not drawn)	60400 nM	
58 nM	130 nM	O=C(N1CCCCC1)N1CCC(NC(c2ccc(Cl)cc2)c2cccnc2)CC1 (stereo not drawn)	> 100000 nM	
25 nM	80 nM	CC(C)Oc1ccc(C(c2cccnc2)N2CCC(NC(=O)OC(C)(C)C)CC2)cc1 (stereo not drawn)	56000 nM	
60 nM	260 nM	CC(C)(C)OC(=O)NC1CCN(C(c2ccc(Cl)cc2)c2cncnc2)CC1 (stereo not drawn)	> 100000 nM	
18 nM	86 nM	CCOC(=O)NC1CCN(C(c2ccc(Cl)cc2)c2cccnc2)CC1 (stereo not drawn)	> 100000 nM	
28 nM	88 nM	O=C(OCc1ccccc1)N1CCN(C(c2cccnc2)c2ccc(Cl)cc2F)CC1 (stereo not drawn)	59700 nM	
54 nM	110 nM	CC(C)(C)NC(=O)N1CCN(C(c2cncnc2)c2ccc(Cl)cc2F)CC1 (stereo not drawn)	> 100000 nM	
10 nM	46 nM	CC(C)(C)OC(=O)NC1CCN(C(c2cccnc2)c2ccc(Cl)cc2F)CC1 (stereo not drawn)	55100 nM	
20 nM	75 nM	O=C(Nc1ccccc1)NC1CCN(C(c2ccc(Cl)cc2)c2cccnc2)CC1 (stereo not drawn)	75600 nM	
60 nM	220 nM	O=C(NC1CCCC1)NC1CCN(C(c2ccc(Cl)cc2)c2cccnc2)CC1 (stereo not drawn)	62600 nM	
59 nM	190 nM	CC(C)(C)OC(=O)NC1CCN(C(c2cncnc2)c2ccc(Cl)cc2F)CC1 (stereo not drawn)	> 100000 nM	
10 nM	430 nM	O=C(NC1CCN(C(c2ccc(Cl)cc2)c2cccnc2)CC1)c1ccccc1 (stereo not drawn)	64100 nM	
32 nM	110 nM	CN(C)C(=O)NC1CCN(C(c2ccc(Cl)cc2)c2cccnc2)CC1 (stereo not drawn)	> 100000 nM	
8.5 nM	46 nM	CC(C)(C)OC(=O)NC1CCN(C(c2ccc(Cl)cc2)c2cccnc2)CC1 (stereo not drawn)	54000 nM	
15 nM	59 nM	CC(C)(C)OC(=O)N1CCC(NC(c2ccc(C(F)(F)F)cc2)c2cccnc2)CC1 (stereo not drawn)	57600 nM	
63 nM	190 nM	CC(C)(C)NC(=O)NC1CCN(C(c2ccc(Cl)cc2)c2cccnc2)CC1 (stereo not drawn)	> 100000 nM	
24 nM	74 nM	CC(C)(C)OC(=O)N1CCC(NC(c2ccc(Cl)cc2)c2cccnc2)CC1 (stereo not drawn)	58200 nM	
26 nM	100 nM	CC(C)(C)OC(=O)NC1CCN(C(c2ccc(C#N)cc2)c2cccnc2)CC1 (stereo not drawn)	> 100000 nM	
31 nM	94 nM	CC(C)(C)CC(=O)N1CCC(NC(c2ccc(Cl)cc2)c2cccnc2)CC1 (stereo not drawn)	> 100000 nM	
36 nM	100 nM	CCN(CC)C(=O)N1CCC(NC(c2ccc(Cl)cc2)c2cccnc2)CC1 (stereo not drawn)	> 100000 nM	
3 nM	30 nM	CC(C)c1ccc(NC(=O)NC2CCN(C(c3ccc(Cl)cc3)c3cccnc3)CC2)cc1 (stereo not drawn)	> 100000 nM	
26 nM	110 nM	O=C(NC1CCCCC1)NC1CCN(C(c2ccc(Cl)cc2)c2cccnc2)CC1 (stereo not drawn)	84300 nM	
